# According to patent publication US9844542B2, “Substituted imidazopyridine and triazolopyridine compounds as negative allosteric modulators of mGluR5” (Vanderbilt University, priority 2013, dated 2017):
# Several values for one entry are separate records, joined by “and”; a condition that tells them apart may be missing. Equal values may be shown once.
# Target: T1, rat mGluR5 (Rattus norvegicus, UniProt P31424)
# T1 construct: expressed in transfected cells
# Assay: mGluR5 calcium mobilization assay (FDSS, Fluo-4) in HEK 293A cells stably expressing rat mGluR5
# Assay type: cell-based
# Conditions: HEK cells transfected with rat mGluR5; antagonism of glutamate EC80 response; ± = standard error of at least three experiments
# Experimental: Human embryonic kidney (HEK) cells transfected with rat or human mGluR5 were plated in clear bottom assay plates for assay in a Functional Drug Screening System (FDSS). The cells were loaded with a Ca^2+-sensitive fluorescent dye (e.g., Fluo-4), and the plates were washed and placed in the FDSS instrument. Test compound was applied to cells 3 seconds after baseline readings were taken. Cells were incubated with the test compounds for 140 seconds and then stimulated with an EC20 concentration of an mGluR5 agonist (e.g., glutamate, 3,5-dihydroxyphenylglycine, or quisqualate); 60-80 seconds later an EC80 concentration of agonist was added and readings taken for an additional 40 seconds. Data were collected at 1 Hz. […] Concentration response curves were generated using a four parameter logistical equation.
# The above described assay was operated in two modes. In the first mode (utilizing a triple add protocol), a range of concentrations of the present compounds were added to cells, followed by two single fixed concentrations of agonist (EC20 followed by EC80). If a compound acted as a potentiator, an EC50 value for potentiation of the EC20 response and a maximum extent of potentiation by the compound at this concentration of agonist was determined by non-linear curve fitting. If a compound acted as an antagonist, an IC50 value for antagonism of the EC80 response and a maximum extent of antagonism by the compound at this concentration of agonist was determined by non-linear curve fitting. In the second mode (utilizing a double add protocol), several fixed concentrations of the present compounds were added to various wells on a plate, followed by a range of concentrations of agonist for each concentration of present compound; the EC50 values for the agonist at each concentration of compound were determined by nonlinear curve fitting. A decrease in the EC50 value of the agonist with increasing concentrations of the present compounds (a leftward shift of the agonist concentration-response curve) is an indication of the degree of mGluR5 positive allosteric modulation at a given concentration of the present compound. An increase in the EC50 value of the agonist with increasing concentrations of the present compounds (a rightward shift of the agonist concentration response curve) is an indication of the degree of mGluR5 antagonism at a given concentration of the present compound. The second mode also indicates whether the present compounds also affect the maximum response to mGluR5 to agonists.
# The mGluR5 activity was determined using the calcium mobilization assays in human embryonic kidney cells as described herein below, wherein the human embryonic kidney cells were transfected with rat mGluR5. The mGluR5 activity data for some compounds are shown as the average of at least three experiments with the standard error in these cases. If no error is indicated for the mGluR5 activity, the values given represent the results from a single experiment or the average of two experiments. The compounds in Table 1 were synthesized with methods identical or analogous to those shown herein. The requisite starting materials were commercially available, described in the literature, or readily synthesized by one skilled in the art of organic synthesis.
# GluMax is the amplitude of response in the presence of 30 μM test compound as a percentage of maximal response (100 μM glutamate). Partial antagonists display concentration-response curves (CRCs) that plateau above 10%.
# The preparation of rat mGluR5 stable cell-lines is as previously described (e.g. see Romano et al. J Biol. Chem. 1996 Nov. 8; 271(45):28612-6).
# T1 sequence (P31424 21-1171 isoform P31424-2 limits assumed): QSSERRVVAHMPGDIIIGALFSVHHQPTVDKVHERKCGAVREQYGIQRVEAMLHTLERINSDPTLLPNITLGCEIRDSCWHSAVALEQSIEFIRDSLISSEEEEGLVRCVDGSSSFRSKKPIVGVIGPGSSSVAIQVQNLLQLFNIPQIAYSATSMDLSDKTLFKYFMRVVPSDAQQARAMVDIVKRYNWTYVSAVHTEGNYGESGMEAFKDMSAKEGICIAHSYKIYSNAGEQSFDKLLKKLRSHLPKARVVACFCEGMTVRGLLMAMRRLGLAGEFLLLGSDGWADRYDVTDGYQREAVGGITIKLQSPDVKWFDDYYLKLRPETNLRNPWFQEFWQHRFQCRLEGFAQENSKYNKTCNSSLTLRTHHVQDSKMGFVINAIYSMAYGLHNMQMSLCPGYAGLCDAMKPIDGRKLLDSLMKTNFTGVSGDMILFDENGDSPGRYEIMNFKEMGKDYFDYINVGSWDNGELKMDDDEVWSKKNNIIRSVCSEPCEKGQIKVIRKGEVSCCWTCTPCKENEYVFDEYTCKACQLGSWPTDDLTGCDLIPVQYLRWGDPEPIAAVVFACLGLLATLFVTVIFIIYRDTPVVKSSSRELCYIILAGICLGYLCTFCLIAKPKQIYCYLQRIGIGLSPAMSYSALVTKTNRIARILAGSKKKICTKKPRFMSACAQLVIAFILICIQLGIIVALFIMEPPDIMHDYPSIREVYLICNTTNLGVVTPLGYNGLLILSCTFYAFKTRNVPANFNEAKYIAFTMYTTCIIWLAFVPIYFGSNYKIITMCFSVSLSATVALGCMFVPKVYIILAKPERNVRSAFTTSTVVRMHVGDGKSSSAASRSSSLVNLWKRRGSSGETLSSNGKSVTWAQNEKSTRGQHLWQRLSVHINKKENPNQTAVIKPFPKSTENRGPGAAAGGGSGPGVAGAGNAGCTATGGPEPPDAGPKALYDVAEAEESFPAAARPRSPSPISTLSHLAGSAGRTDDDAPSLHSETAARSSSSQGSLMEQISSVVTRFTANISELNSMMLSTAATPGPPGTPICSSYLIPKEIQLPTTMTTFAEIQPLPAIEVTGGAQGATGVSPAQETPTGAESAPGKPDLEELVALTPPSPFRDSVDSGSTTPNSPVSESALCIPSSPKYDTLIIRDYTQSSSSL
row,IC50,Compound
1,2840 nM,COc1cccc(NC(=O)c2cc(Oc3cnc(C)nc3)cn3ccnc23)n1
2,28 ± 7 nM,O=C(Nc1ccc(F)cn1)c1cc(Oc2cncc(F)c2)cn2cnnc12 [drawing 160]
3,70 nM,COc1cccc(NC(=O)c2cc(Oc3cncc(F)c3)cn3ncnc23)n1
4,535 nM,O=C(Nc1nc(C(F)(F)F)cs1)c1cc(Oc2cncnc2)cn2ncnc12
5,128 nM,Cc1cccc(NC(=O)c2cc(Oc3cnc(F)c(F)c3)cn3ncnc23)n1
6,57 nM,Cc1cncc(Oc2cc(C(=O)Nc3ccccn3)c3ncnn3c2)c1
7,1420 nM,CCc1cccc(NC(=O)c2cc(Oc3cncc(OC)c3)cn3cnnc23)n1 [drawing 282]
8,666 nM,Cc1csc(NC(=O)c2cc(Oc3cncc(Cl)c3)cn3cnnc23)n1
9,1310 nM,Cc1ccc(NC(=O)c2cc(Oc3cncc(F)c3)cn3c(C)nnc23)nc1
10,45 nM,[2H]c1nc(NC(=O)c2cc(Oc3cncc(F)c3)cn3cnnc23)c([2H])c([2H])c1[2H]
11,258 nM,COc1cncc(Oc2cc(C(=O)Nc3cccc(F)n3)c3ncnn3c2)c1
12,1210 nM,Cc1csc(NC(=O)c2cc(Oc3cncc(C#N)c3)cn3cnnc23)n1
13,68 nM,COc1ccc(NC(=O)c2cc(Oc3cncc(F)c3)cn3ncnc23)nc1
14,> 10000 nM,COc1cccc(NC(=O)c2cc(Oc3cnc(C)nc3)cn3cnnc23)n1
15,1230 nM,[2H]c1nc(NC(=O)c2cc(Oc3cncc(OC)c3)cn3cnnc23)c([2H])c([2H])c1[2H]
16,138 nM,Cc1ccc(NC(=O)c2cc(Oc3cncnc3)cn3ncnc23)nc1
17,695 nM,Cc1cccc(NC(=O)c2cc(Oc3cncc(Cl)c3)cn3cnnc23)n1
18,94 nM,COc1cccc(NC(=O)c2cc(Oc3cncc(F)c3)cn3ccnc23)n1
19,296 nM,Cc1nc(NC(=O)c2cc(Oc3cncnc3)cn3ncnc23)ccc1F
20,5780 nM,Cc1ncc(Oc2cc(C(=O)Nc3cccc(F)n3)c3nccn3c2)cn1
21,101 nM,CCc1cccc(NC(=O)c2cc(Oc3cncc(F)c3)cn3ncnc23)n1

row,IC50,Compound
1,32 nM,O=C(Nc1ccccn1)c1cc(Oc2cncc(Cl)c2)cn2ncnc12
2,110 nM,Cc1csc(NC(=O)c2cc(Oc3cc(F)cnc3F)cn3ncnc23)n1
3,1430 nM,N#Cc1cncc(Oc2cc(C(=O)Nc3ccc(F)cn3)c3nncn3c2)c1
4,142 nM,COc1ccc(NC(=O)c2cc(Oc3cccnc3)cn3ncnc23)nc1
5,377 nM,CCc1cccc(NC(=O)c2cc(Oc3cncc(OC)c3)cn3ccnc23)n1
6,> 10000 nM,Cc1ncc(Oc2cc(C(=O)Nc3cccc(F)n3)c3nncn3c2)cn1
7,10300 nM,COc1cncc(Oc2cc(C(=O)Nc3ccc(F)c(C)n3)c3nncn3c2)c1
8,23 nM and 25 nM,O=C(Nc1ccc(F)cn1)c1cc(Oc2cncc(F)c2)cn2ncnc12 [drawing 179]
9,1090 nM,Cc1csc(NC(=O)c2cc(Oc3cnc(C)nc3)cn3ccnc23)n1
10,82 nM,COc1ccc(NC(=O)c2cc(Oc3cncc(F)c3)cn3cnnc23)nc1
11,135 nM,Cc1ccc(NC(=O)c2cc(Oc3cncc(Cl)c3)cn3ncnc23)nc1
12,331 nM,COc1ccc(NC(=O)c2cc(Oc3cncc(OC)c3)cn3ncnc23)nc1
13,268 nM,COc1cncc(Oc2cc(C(=O)Nc3cccc(OC)n3)c3nccn3c2)c1
14,218 nM,COc1cncc(Oc2cc(C(=O)Nc3ccc(C)cn3)c3ncnn3c2)c1
15,1170 nM,O=C(Nc1cc(F)ccn1)c1cc(Oc2cncc(F)c2)cn2cnnc12
16,623 nM,CCc1cccc(NC(=O)c2cc(Oc3cncc(F)c3)cn3nc(C)nc23)n1
17,846 nM,Cc1nc2c(C(=O)Nc3ccc(F)c(C)n3)cc(Oc3cncc(F)c3)cn2n1
18,723 nM,O=C(Nc1cc(F)ccn1)c1cc(Oc2cncc(F)c2)cn2ncnc12
19,97 nM,Cc1nc2c(C(=O)Nc3ccccn3)cc(Oc3cncc(F)c3)cn2n1
20,94 nM,Cc1cncc(Oc2cc(C(=O)Nc3ccc(F)cn3)c3ncnn3c2)c1
21,92 nM,Cc1nc(NC(=O)c2cc(Oc3cncc(F)c3)cn3ncnc23)ccc1F

row,IC50,Compound
1,275 nM,COc1ccc(NC(=O)c2cc(Oc3cncc(C)c3)cn3ncnc23)nc1
2,66 nM,COc1cncc(Oc2cc(C(=O)Nc3nc(C)cs3)c3nccn3c2)c1
3,62 nM,O=C(Nc1cccc(F)n1)c1cc(Oc2cncc(Cl)c2)cn2ncnc12
4,41 ± 2 nM,O=C(Nc1ccc(F)cn1)c1cc(Oc2cncc(F)c2F)cn2ncnc12
5,312 nM,Cc1cccc(NC(=O)c2cc(Oc3cncnc3)cn3ncnc23)n1
6,100 nM and 75 nM,O=C(Nc1ccc(F)cn1)c1cc(Oc2cncnc2)cn2ncnc12 [drawing 195]
7,36 nM,O=C(Nc1ccccn1)c1cc(Oc2cncc(F)c2F)cn2ncnc12
8,3620 nM,Cc1cccc(NC(=O)c2cc(Oc3cnc(C)nc3)cn3ccnc23)n1
9,128 nM,Cc1cncc(Oc2cc(C(=O)Nc3nc(C)cs3)c3ncnn3c2)c1
10,32 nM,O=C(Nc1cccc(F)n1)c1cc(Oc2cccnc2)cn2ncnc12
11,130 nM,Cc1cccc(NC(=O)c2cc(Oc3cncc(Cl)c3)cn3ncnc23)n1
12,161 nM,O=C(Nc1nc(C2CC2)cs1)c1cc(Oc2cncnc2)cn2ncnc12
13,127 nM,Cc1csc(NC(=O)c2cc(Oc3cncc(C#N)c3)cn3ccnc23)n1
14,146 nM,COc1cccc(NC(=O)c2cc(Oc3cncc(F)c3)cn3cnnc23)n1
15,33 nM,O=C(Nc1ccccn1)c1cc(Oc2cncc(Cl)c2)cn2ccnc12
16,1360 nM,COc1cccc(NC(=O)c2cc(Oc3cncc(Cl)c3)cn3cnnc23)n1
17,182 nM,Cc1csc(NC(=O)c2cc(Oc3cncc(Cl)c3)cn3ccnc23)n1
18,3710 nM,Cc1ncc(Oc2cc(C(=O)Nc3ccc(F)cn3)c3nccn3c2)cn1
19,135 nM,Cc1csc(NC(=O)c2cc(Oc3cncc(F)c3)cn3nc(C)nc23)n1
20,46 nM,[2H]c1nc(NC(=O)c2cc(Oc3cncc(OC)c3)cn3ccnc23)c([2H])c([2H])c1[2H]
21,41 nM,Cc1cccc(NC(=O)c2cc(Oc3cccnc3)cn3ncnc23)n1

row,IC50,Compound
1,1340 nM,CCc1cccc(NC(=O)c2cc(Oc3cncc(Cl)c3)cn3cnnc23)n1
2,236 nM,COc1cccc(NC(=O)c2cc(Oc3cncc(Cl)c3)cn3ncnc23)n1
3,138 nM,O=C(Nc1ccc(F)cn1)c1cc(Oc2cc(F)cnc2F)cn2ncnc12
4,80 nM,COc1cncc(Oc2cc(C(=O)Nc3cccc(C)n3)c3nccn3c2)c1
5,232 nM,O=C(Nc1cccc(F)n1)c1cc(Oc2cncnc2)cn2cnnc12
6,42 nM,O=C(Nc1cccc(F)n1)c1cc(Oc2cncc(F)c2)cn2ccnc12
7,43 nM,[2H]c1nc(NC(=O)c2cc(Oc3cncc(Cl)c3)cn3ncnc23)c([2H])c([2H])c1[2H]
8,260 nM,COc1cccc(NC(=O)c2cc(Oc3cncc(C)c3)cn3ncnc23)n1
9,> 10000 nM,COc1ccc(NC(=O)c2cc(Oc3cnc(C)nc3)cn3cnnc23)nc1
10,59 ± 11 nM,O=C(Nc1ccc(F)cn1)c1cc(Oc2cnc(F)c(F)c2)cn2ncnc12
11,219 nM,O=C(Nc1ccccn1)c1cc(Oc2cncnc2)cn2ncnc12
12,58 nM,Cc1cccc(NC(=O)c2cc(Oc3cncc(F)c3)cn3ncnc23)n1
13,1070 nM,COc1cncc(Oc2cc(C(=O)Nc3ccc(F)c(C)n3)c3ncnn3c2)c1
14,89 nM,Cc1cncc(Oc2cc(C(=O)Nc3cccc(F)n3)c3ncnn3c2)c1
15,92 nM,COc1ccc(NC(=O)c2cc(Oc3cncc(Cl)c3)cn3ncnc23)nc1
16,1180 nM,CCc1cccc(NC(=O)c2cc(Oc3cncc(F)c3)cn3c(C)nnc23)n1
17,15 nM,[2H]c1nc(NC(=O)c2cc(Oc3cncc(F)c3)cn3ccnc23)c([2H])c([2H])c1[2H]
18,> 10000 nM,CCc1cccc(NC(=O)c2cc(Oc3cncc(OC)c3)cn3cnnc23)n1 [drawing 287]
19,7970 nM,[2H]c1nc(NC(=O)c2cc(Oc3cnc(C)nc3)cn3cnnc23)c([2H])c([2H])c1[2H]
20,175 nM,COc1cncc(Oc2cc(C(=O)Nc3cccc(C)n3)c3ncnn3c2)c1
21,99 nM,COc1cncc(Oc2cc(C(=O)Nc3ccccn3)c3ncnn3c2)c1
